How the values were obtained:
[1] = tested on: β-catenin; test: Biomarker for leukocytopenia: β-catenin in PBMC; type: in vivo, mice; settings: all doses
[2] = tested on: embolic occlusion of the middle cerebral artery (MCAO) in the rat; test: Post Stroke Recovery Model I (embolic MCAO); type: in vivo
Protocol: This study investigates the effect of compounds on volume of cerebral infarction, cell proliferation, and functional recovery after embolic occlusion of the middle cerebral artery (MCAO) in the rat.
Ten Rats, subjected to MCAO (Zhang R L, et. al., 1997 # 1), were randomly assigned to either Vehicle or Compound I-3 after MCAO. The treatment was administered once daily orally starting 24 hours after MCAo for 14 days. 5-bromo-2-deoxyuridine (BrdU, Sigma; 100 mg/kg, i.p.) is administered at 1 day after MCAO, and consecutively for 6 days. Functional assessments are performed before MCAO and at day 1, day 7 and day 14 after MCAO by an investigator who is blinded to the study. The assessment included Neurological Severity Score (mNSS) and Adhesive removal test score, described below. A total of twenty rats are sacrificed at 14 days after MCAO. Three contralateral hemispheres of each group are assigned for analysis. Volume of infarction and cell proliferation in the ipsilateral subventricular zone (SVZ) are measured.
Rats are tested for left forelimb somatosensory deficit with the adhesive removal test (Schallert T, et. al., 1984 # 3). Each animal received 3 trials by placing round strips of packing tape (1.2 cm in diameter) at each testing day and the mean time (seconds) required to remove stimuli from the left forelimb is was recorded.
All the animals are anesthetized with ketamine (44 mg/kg IM) and xylazine (13 mg/kg IM) and sacrificed at fourteen days after MCA occlusion. […] Infarct volumes are measured using a Global Lab Image analysis program (Data Translation). The area of both hemispheres and the area containing the ischemic neuronal damage (mm^2) are calculated by tracing the area on the computer screen. The lesion volume […] is determined by multiplying the appropriate area by the section interval thickness (Chen H, et al., 1992, # 4). […]
To visualize specificity of the immunohischemical reaction, immunostaining of BrdU (a monoclonal antibody against BrdU, 1:100, DAK) is employed. […] BrdU-immunoreactive nuclei in the SVZ are counted on a computer monitor to improve visualization. […]

[3] = tested on: 5-FU treated C57BL/6 mice; test: Leukocytopenia animal model (5-FU); type: in vivo
Excerpt: This study evaluates the hematopoietic recovery of peripheral blood and bone marrow cells following treatment with 5-FU (a myeloablative reagent) and compares the recoveries of various doses of the test compound with a cytokine known to enhance recovery rhG-CSF. The introduction of the chemotherapeutic agent causes a decrease in the peripheral blood white blood cell count and in particular, the neutrophil count. […] 5-FU acts by killing all the dividing cells, sparing primitive stem cells which are relatively quiescent and are thus not impacted by the treatment. Following treatment, primitive cells are recruited to proliferate and differentiate, thus re-establishing normal peripheral blood and femoral cell counts. This model may be used to evaluate compounds that could facilitate the recruitment and proliferation of the primitive cells and assess the kinetics of recovery of bone marrow as well as mature cell populations (white blood cells, red blood cells and platelets) in the blood.
One hundred and five C57BL/6 mice at 6-8 weeks of age were purchased from Jackson Labs. All, with the exception of the 4 untreated control mice were treated with 150 mg/kg 5-Fluorouracil (5-FU) interperitoneal (ip) at day 0. The four untreated mice (Group 1) were sacrificed on day 12 and they represent the “normal variability in blood and cell counts”. The 5-FU treated mice were divided equally into 4 distinct groups (Groups 2, 3, 4 and 5). On day −1 (the day before treatment with 5-FU) through to day 12, the mice in group 2 were treated at 8 a.m. and 6 p.m. with just solvent (20% PEG 400/10% Vitamin E TPGS/70% water) and served as the solvent control for groups 4 and 5.
Four mice from this group were sacrificed on days 4, 6, 8, 10 and 12 following the final dose of solvent the morning before sacrificing. On days 1 through 4, the mice in group three were dosed with 50 ug/kg rhG-CSF twice daily with 6 hours separating the daily doses. Four mice from this group were also sacrificed on days 4, 6, 8, 10 and 12. For treatment of test compound, groups 4 and 5, dosing was done as indicated above with the solvent control (2 times daily at 8 am and 6 pm) with compound that was prepared fresh each day.
Compound I-3 was weighed out into 13 vials and an appropriate amount of solvent added to achieve a final concentration for dosing at 30 mg/Kg (high dose). The compound was solubilized by sonication in solvent for 2-3 minutes and then 30% of the volume removed and diluted 1:3 with solvent to prepare compound for dosing at 10 mg/Kg (low dose). This was done daily and delivered to the animal technologist at 1 pm for the evening and next morning dosing. The unused compound was returned and frozen the next day when the freshly prepared sample for the next doses delivered. On days 1 through 12, mice in group 4 received the low dose of compound ([…]) and mice in group 5 received the high dose of compound (30 mg/Kg) twice daily. Four mice were sacrificed for each group on days 4, 6, 8, 10 and 12.
Each time mice were sacrificed from any of the groups, peripheral blood was collected in EDTA microtainer tubes by cardiac puncture. Approximately 400 uL of the blood was sent for analysis of blood indices (WBC, ANC, platelets, hemoglobin and hematocrit) at a central veterinary service laboratory using an automated system. The remainder of the blood was sent to STI where the plasma was separated by centrifugation at 8000 r.p.m. for 10 minutes and stored at −80° C. for future bioassays. Both femurs were also harvested and cells extracted and processed. The femoral cells were counted, red blood cells lysed and the cells subsequently prepared (at 5×10^6 cells/100 uL in Laemmli buffer and an equivalent unprocessed cell pellet) and stored at −80° C. for future protein analyses. Also on day 12, when the animals were sacrificed, their livers were removed and stored in 10% neutral formalin for future analysis. […]

[4] = tested on: β-catenin; test: β-catenin in brain, Post Stroke Model I; type: in vivo, rat; settings: all doses
[5] = tested on: GSK-3α/β pTYR; test: Biomarker for leukocytopenia: pTYR in PBMC (Western blot); type: in vivo, mice; settings: all doses
Protocol: To track the activity of Compound (I-3) in mice subjected to 5-FU treatment, peripheral blood was removed at time of sacrifice from both compound and vehicle-treated mice and a protein lysate was obtained from peripheral blood mononuclear cells (PBMC) after removal of red blood cells. Lysates were analyzed by Western blot and probed for GSK-3α/β pTYR levels.

[6] = tested on: GSK-3 α/β pTYR; test: pTYR biomarker analysis in brain, Post Stroke Model I; type: in vivo, rat; settings: all doses, termination of study
Protocol: To track the activity of Compound I-3 in the CNS of rats subjected to MCAO, brains were removed and protein lysate was obtained as described above from both vehicle treated and compound treated animals at the termination of the study. Lysates were analyzed by Western blot and probed for GSK-3 α/β pTYR levels.

[7] = tested on: transient middle cerebral artery occlusion (MCAO) in rats; settings: after transient MCAO; cited from earlier work
[8] = once daily orally starting 24 hours after MCAo for 14 days

## Cc1nc(-c2ccccc2Cl)nc(Nc2n[nH]c3ccc(F)cc23)c1C [Compound I-3]
[1]
  induction of β-catenin: no induction
[2]; 14 days after MCAO
  number of BrdU positive cells in the ipsilateral SVZ compared with vehicles: significantly (p<0.05) increased
[2]; [8]
  adhesive removal test compared with vehicle group: significant (p<0.05) improvement
  mNSS test compared with vehicle group: significant (p<0.05) improvement
[3]; 5-FU + Compound I-3 10 mg/Kg twice daily
  WBC nadir (lowest cell count observed): 4 days
[3]; 5-FU + Compound I-3 30 mg/Kg twice daily
  WBC nadir (lowest cell count observed): 4 days
[3]; 5-FU + high dose (30 mg/Kg twice daily)
  kinetics of the WBC and ANC recovery: enhanced
[3]; 5-FU + high dose of test compound
  Bone marrow cellularity: recovery to normal values: 10 days
[3]; 5-FU and high dose, day 8
  bone marrow cell counts versus 5-FU and rhG-CSF: significantly higher
[3]; 5-FU and high dose, versus other groups
  bone marrow cellularity nadir: did not have as low a nadir as other groups
[3]; 5FU + high dose, day 8
  Platelet counts: soared above the reference ranges
[3]; Group 5 (high dose) versus Groups 3 and 4
  kinetics of bone marrow cellular recovery: fastest
[3]; high dose
  WBC and ANC recovery compared to 5-FU and rhG-CSF: comparable
[3]; high dose, days 8 and 10
  WBC and ANC recovery compared to 5-FU and solvent control: significantly increased
[4]
  induction of β-catenin: no induction
[5]
  pTYR signal compared to vehicle treated animals: significant reduction
[6]
  pTYR signal compared to vehicle treated rats: significant reduction

## IGF-1: insulin growth factor-1, a known GSK-3 inhibitor
[7]
  infarct size in rat brains: reduced infarct size

B1: rhG-CSF: recombinant human granulocyte colony stimulating factor; a cytokine known to enhance recovery (protein, UniProt P09919 31-207, looked up)
Granulocyte …: TPLGPASSLPQSFLLKCLEQVRKIQGDGAALQEKLVSECATYKLCHPEELVLLGHSLGIPWAPLSSCPSQALQLAGCLSQLHSGLFLYQGLLQALEGISPELGPTLDTLQLDVADFATTIWQQMEELGMAPALQPTQGAMPAFASAFQRRAGGVLVASHLQSFLEVSYRVLRHLAQP
[3]; 5-FU + rhG-CSF 50 ug/kg twice daily
  ANC nadir: 4 days
[3]; 5-FU + rhG-CSF 50 ug/kg twice daily, days 1 through 4
  WBC nadir (lowest cell count observed): 4 days
[3]; 5-FU + rhG-CSF, day 8
  Platelet counts: soared above the reference ranges
[3]; 5-FU + rhG-CSF, days 4 and 6
  actual neutrophil counts (ANC): almost non-detectable levels

Source: US20110224197A1, “PYRIMIDINES AND PYRIDINES USEFUL AS INHIBITORS OF PROTEIN KINASES” (Vertex Pharmaceuticals Incorporated, priority 2008, published 2011)
